Source: US20160115540A1, “PRODRUGS AND DRUGS” (Biogen MA Inc., priority 2013, published 2016)
Counter-ions that a name gives are not always drawn.

Tested on: liver
Experiment: Transcriptional profiling on Affymetrix GeneChips, single dose, naïve mice: liver
Format: in vivo, C57BL/6 mice
Details: for Number of differentially expressed genes identified: Liver: Naïve, Single Dose
Protocol: Treated mice were sacrificed at 2, 7, or 12 hours. Tissues (liver, spleen, kidney, jejunum, cortex, hippocampus, striatum and whole blood) were collected and analyzed by transcriptional profiling on mouse Affymetrix GeneChips.
Tissues (liver, spleen, kidney, jejunum, cortex, hippocampus, striatum and whole blood) were collected and analyzed by transcriptional profiling on mouse Affymetrix GeneChips.
Animals were exposed to CO2 and whole blood collected via cardiac puncture. Two 100 μl aliquots of whole blood were collected in 1.5 mL microcentrifuge tubes and snap frozen in liquid nitrogen. Peripheral (liver, spleen, kidney and jejunum) and CNS brain (cerebellum, hippocampus, striatum and cortex) tissues were harvested and snap frozen in liquid nitrogen, with special care taken to collect tissues of similar size and from the same location. All samples were stored at −80° C. until RNA extraction was conducted.
For RNA preparation, frozen tissues were placed in 2 mL RNAse-free 96-well blocks with 1.5 mL QIAzol Lysis Reagent (QIAgen) and a 3.2 mm stainless steel bead (BioSpec Products, Bartlesville, Okla.). Tissues were disrupted for four cycles of 45 seconds in a Mini-Beadbeater (Biospec Products). RNA was extracted in chloroform and the aqueous phase was mixed with an equal volume of 70% ethanol. Extracted RNA was applied to RNeasy 96 plates and purified by the spin method according to the manufacturer's protocol (RNeasy 96 Universal Tissue Protocol, QIAgen, Hilden Germany).
Automated sample amplifications and biotin labelings were carried out using the NuGEN Ovation RNA Amplification system V2 (Cat #3100), Ovation WB reagent (Cat #1300) and Encore Biotin module (Cat #4200) (NuGEN Technologies, Inc, San Carlos, Calif.) according to manufacturer's recommendations using an Arrayplex automated liquid handler (Beckman Coulter, Indianapolis, Ind.). Two micrograms of biotin labeled sscDNA probe were hybridized to Affymetrix GeneChip Affymetrix HT_MG-430_PM plate arrays with modified conditions as described in Allaire et al. Washing and staining of the hybridized arrays were completed as described in the GeneChip Expression analysis technical manual for HT plate arrays using the Genechip® Array Station (Affymetrix, Santa Clara, Calif.) with modifications as described in Allaire et al. The processed GeneChip® plate arrays were scanned using GeneTitan scanner (Affymetrix, Santa Clara, Calif.).
Affymetrix scans were subject to quality control (QC) measures. These tests included a visual inspection of the distribution of raw signal intensities and an assessment of RNA degradation, relative log expression (RLE), and normalized unsealed standard error (NUSE). All sample scans that passed these QC metrics were included in the analysis.
All CEL files were subjected to GC-content-based Robust Multi-array Average (GCRMA) normalization (version 2.20.0) (Irizarry R A, et al. Nucleic Acids Res 2003; 31:e15; Li C, et al. Genome Biol 2001; 2:[…]0032). Expression levels were log (base 2) transformed.
All calculations and analyses were carried out using R (version 2.11.1) and Bioconductor computational tools (Gentleman R. Springer Science+Business Media 2005).

[1] = liver, 100 mg/kg, 2 hr, vs matched vehicle controls
[2] = liver, 100 mg/kg, 7 hr, vs matched vehicle controls

COC(=O)/C=C/C(=O)OC [DMF, dimethyl fumarate]
FC Dnajc12 (DnaJ (Hsp40) homolog, subfamily C, member 12) (100DMF-vs-100MMF, 12 h, probe 1417441_PM_at, naïve single dose, tissue section before SPLEEN): −2.49
FC Cyb561 (cytochrome b-561) (100DMF-vs-100MMF, 12 h, probe 1417507_PM_at, naïve single dose, tissue section before SPLEEN): −2.02
FC Crybb3 (crystallin, beta B3) (100DMF-vs-100MMF, 12 h, probe 1419005_PM_at, naïve single dose, tissue section before SPLEEN): −1.69
FC 9130221J18Rik (RIKEN cDNA 9130221J18 gene) (100DMF-vs-100MMF, 12 h, probe 1446368_PM_at, naïve single dose, tissue section before SPLEEN): −1.93
FC Tnfrsf19 (1448147_PM_at) (LIVER, 100DMF-vs-100MMF, 7 h): 1.73
FC Isyna1 (1415977_PM_at) (LIVER, 100DMF-vs-100MMF, 12 h): −1.76
FC 1447411_PM_at (no gene symbol) (LIVER, 100DMF-vs-Veh, 2 h): 2.57
FC 5430435G22Rik (1435830_PM_a_at) (LIVER, 100DMF-vs-Veh, 2 h): 1.79
FC 9130221J17Rik (1443159_PM_at) (LIVER, 100DMF-vs-Veh, 2 h): 1.54
FC Abcc1 (1452233_PM_at) (LIVER, 100DMF-vs-Veh, 2 h): 1.75
FC Akr1b8 (1448894_PM_at) (LIVER, 100DMF-vs-Veh, 2 h): 2.18
FC Clec4n (1419627_PM_s_at) (LIVER, 100DMF-vs-Veh, 2 h): 2.34
FC Clec4d (1420804_PM_s_at) (LIVER, 100DMF-vs-Veh, 2 h): 2.30
FC Figf (1438953_PM_at) (LIVER, 100DMF-vs-Veh, 2 h): 2.23
FC Figf (1438954_PM_x_at) (LIVER, 100DMF-vs-Veh, 2 h): 1.90
FC Figf (1449528_PM_at) (LIVER, 100DMF-vs-Veh, 2 h): 1.66
FC Hmox1 1448239_PM_at (LIVER, 100DMF-vs-Veh, 2 h): 2.37
FC Pgd (1436771_PM_x_at) (LIVER, 100DMF-vs-Veh, 2 h): 1.59
FC Pgd (1437380_PM_x_at) (LIVER, 100DMF-vs-Veh, 2 h): 1.61
FC Ppfibp2 (1417801_PM_a_at) (LIVER, 100DMF-vs-Veh, 2 h): 2.38
FC Srxn1 (1419942_PM_at) (LIVER, 100DMF-vs-Veh, 2 h): 1.69
FC Srxn1 (1426875_PM_s_at) (LIVER, 100DMF-vs-Veh, 2 h): 1.64
FC Srxn1 (1451680_PM_at) (LIVER, 100DMF-vs-Veh, 2 h): 1.59
FC Adora1 (1435495_PM_at) (LIVER, 100DMF-vs-Veh, 7 h): 1.50
FC Akr1b8 (1448894_PM_at) (LIVER, 100DMF-vs-Veh, 7 h): 1.58
FC Bmp6 (1450759_PM_at) (LIVER, 100DMF-vs-Veh, 7 h): 1.57
FC Clec4n (1419627_PM_s_at) (LIVER, 100DMF-vs-Veh, 7 h): 2.01
FC Nqo1 (1423627_PM_at) (LIVER, 100DMF-vs-Veh, 7 h): 1.81
FC Gstm4 (1424835_PM_at) (LIVER, 100DMF-vs-Veh, 12 h): 1.54
Number of genes, DMF Only / MMF Only (Liver): 2
Number of differentially expressed genes identified: Liver (100 mpk DMF-vs-100 mpk MMF, 2 h after last dosing): 0
Number of differentially expressed genes identified: Liver (100 mpk DMF-vs-100 mpk MMF, 7 h after last dosing): 1
Number of differentially expressed genes identified: Liver (100 mpk DMF-vs-100 mpk MMF, 12 h after last dosing): 5
Number of differentially expressed genes identified: Liver (100 mpk, vs Vehicle, 2 h after last dosing): 18
Number of differentially expressed genes identified: Liver (100 mpk, vs Vehicle, 7 h after last dosing): 5
Number of differentially expressed genes identified: Liver (100 mpk, vs Vehicle, 12 h after last dosing): 1
Murine Liver DEGs: Abcc1 (1452233_PM_at) [1]: 1.75
Murine Liver DEGs: Akr1b8 (1448894_PM_at) [1]: 2.18
Murine Liver DEGs: Clec4n (1419627_PM_s_at) [1]: 2.34
Murine Liver DEGs: Clec4d (1420804_PM_s_at) [1]: 2.30
Murine Liver DEGs: Figf (1438953_PM_at) [1]: 2.23
Murine Liver DEGs: Hmox1 (1448239_PM_at) [1]: 2.37
Murine Liver DEGs: Pgd (1436771_PM_x_at) [1]: 1.59
Murine Liver DEGs: Ppfibp2 (1417801_PM_a_at) [1]: 2.38
Murine Liver DEGs: Srxn1 (1419942_PM_at) [1]: 1.69
Murine Liver DEGs: Adora1 (1435495_PM_at) [2]: 1.50
Murine Liver DEGs: Akr1b8 (1448894_PM_at) [2]: 1.58
Murine Liver DEGs: Bmp6 (1450759_PM_at) [2]: 1.57
Murine Liver DEGs: Clec4n (1419627_PM_s_at) [2]: 2.01
Murine Liver DEGs: Nqo1 (1423627_PM_at) [2]: 1.81
Murine Liver DEGs: Gstm4 (1424835_PM_at) (liver, 100 mg/kg, 12 hr, vs matched vehicle controls): 1.12
Abcc1 (probe set 1452233_PM_at) differential expression (liver, 2 hr): 1.75
Akr1b8 (probe set 1448894_PM_at) differential expression (liver, 2 hr): 2.18
Clec4n (probe set 1419627_PM_s_at) differential expression (liver, 2 hr): 2.34
Clec4d (probe set 1420804_PM_s_at) differential expression (liver, 2 hr): 2.30
Figf (probe set 1438953_PM_at) differential expression (liver, 2 hr): 2.23
Hmox1 (probe set 1448239_PM_at) differential expression (liver, 2 hr): 2.37
Pgd (probe set 1436771_PM_x_at) differential expression (liver, 2 hr): 1.59
Ppfibp2 (probe set 1417801_PM_a_at) differential expression (liver, 2 hr): 2.38
Srxn1 (probe set 1419942_PM_at) differential expression (liver, 2 hr): 1.69
Adora1 (probe set 1435495_PM_at) differential expression (liver, 7 hr): 1.50
Akr1b8 (probe set 1448894_PM_at) differential expression (liver, 7 hr): 1.58
Bmp6 (probe set 1450759_PM_at) differential expression (liver, 7 hr): 1.57
Clec4n (probe set 1419627_PM_s_at) differential expression (liver, 7 hr): 2.01
Nqo1 (probe set 1423627_PM_at) differential expression (liver, 7 hr): 1.81
Gstm4 (probe set 1424835_PM_at) differential expression (liver, 12 hr): 1.12
